Test results: PubChem BioAssay (NCI)
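Briefly, cells in 96-well plates were exposed to five compound concentrations for 48 h, and endpoints were estimated by linear interpolation. The concentration for 50% growth inhibition is given as GI50. TGI marks complete inhibition of growth.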

Key:
Assay in all cases: inhibition of tumour cell growth, NCI panel, 48 h
786-0 renal = system: 786-0 renal
A498 renal = system: A498 renal
A549 NSCLC = system: A549 NSCLC
ACHN renal = system: ACHN renal
BT-549 breast = system: BT-549 breast
CAKI-1 renal = system: CAKI-1 renal
CCRF-CEM leukemia = system: CCRF-CEM leukemia
COLO 205 colon = system: COLO 205 colon
DU-145 prostate = system: DU-145 prostate
EKVX NSCLC = system: EKVX NSCLC
HCC-2998 colon = system: HCC-2998 colon
HCT-116 colon = system: HCT-116 colon
HCT-15 colon = system: HCT-15 colon
HL-60(TB) leukemia = system: HL-60(TB) leukemia
HOP-62 NSCLC = system: HOP-62 NSCLC
HOP-92 NSCLC = system: HOP-92 NSCLC
HS 578T breast = system: HS 578T breast
HT29 colon = system: HT29 colon
IGROV1 ovarian = system: IGROV1 ovarian
K-562 leukemia = system: K-562 leukemia
KM12 colon = system: KM12 colon
LOX IMVI melanoma = system: LOX IMVI melanoma
M14 melanoma = system: M14 melanoma
MALME-3M melanoma = system: MALME-3M melanoma
MCF7 breast = system: MCF7 breast
MDA-MB-231 breast = system: MDA-MB-231 breast
MDA-MB-435 = system: MDA-MB-435
MOLT-4 leukemia = system: MOLT-4 leukemia
NCI-H226 lung = system: NCI-H226 lung

`O=C(Nc1ncc(Cc2ccccc2)s1)c1sc2ccccc2c1Cl` showed a GI50 (786-0 renal) of 1320 nM, a TGI (786-0 renal) of 40100 nM and a GI50 (A498 renal) of 286 nM. It also gave a TGI (A498 renal) of 5590 nM, a GI50 (A549 NSCLC) of 853 nM and a TGI (A549 NSCLC) greater than 50400 nM. For the same compound, the GI50 (ACHN renal) was 496 nM, the TGI (ACHN renal) was 48600 nM and the GI50 (BT-549 breast) was 2210 nM. It also gave a TGI (BT-549 breast) of 40000 nM, a GI50 (CAKI-1 renal) of 574 nM and a TGI (CAKI-1 renal) of 24500 nM. The GI50 (CCRF-CEM leukemia) was 593 nM, the TGI (CCRF-CEM leukemia) was greater than 100000 nM and the GI50 (COLO 205 colon) was 2160 nM. It also gave a TGI (COLO 205 colon) greater than 100000 nM, a GI50 (DU-145 prostate) of 2800 nM and a TGI (DU-145 prostate) of 36500 nM. The GI50 (EKVX NSCLC) was 969 nM, the TGI (EKVX NSCLC) was greater than 100000 nM and the GI50 (HCC-2998 colon) was 552 nM. For the same compound, the TGI (HCC-2998 colon) was 12300 nM, the GI50 (HCT-116 colon) was 469 nM and the TGI (HCT-116 colon) was greater than 76600 nM. The GI50 (HCT-15 colon) was 44.9 nM, the TGI (HCT-15 colon) was greater than 100000 nM and the GI50 (HL-60(TB) leukemia) was 375 nM. The TGI (HL-60(TB) leukemia) was greater than 100000 nM, the GI50 (HOP-62 NSCLC) was 1230 nM and the TGI (HOP-62 NSCLC) was greater than 62400 nM. It also gave a GI50 (HOP-92 NSCLC) of 1230 nM, a TGI (HOP-92 NSCLC) of 45300 nM and a GI50 (HS 578T breast) of 537 nM. For the same compound, the TGI (HS 578T breast) was 29900 nM, the GI50 (HT29 colon) was 449 nM and the TGI (HT29 colon) was greater than 63100 nM. For the same compound, the GI50 (IGROV1 ovarian) was 903 nM, the TGI (IGROV1 ovarian) was 61500 nM and the GI50 (K-562 leukemia) was 434 nM. For the same compound, the TGI (K-562 leukemia) was greater than 100000 nM, the GI50 (KM12 colon) was 68.4 nM and the TGI (KM12 colon) was 29000 nM. For the same compound, the GI50 (LOX IMVI melanoma) was 1070 nM, the TGI (LOX IMVI melanoma) was greater than 61800 nM and the GI50 (M14 melanoma) was 448 nM. It also gave a TGI (M14 melanoma) of 32200 nM, a GI50 (MALME-3M melanoma) of 809 nM and a TGI (MALME-3M melanoma) of 24300 nM. The GI50 (MCF7 breast) was 37 nM, the TGI (MCF7 breast) was greater than 100000 nM and the GI50 (MDA-MB-231 breast) was 1210 nM. It also gave a TGI (MDA-MB-231 breast) of 19300 nM, a GI50 (MDA-MB-435) of 250 nM and a TGI (MDA-MB-435) of 805 nM. The GI50 (MOLT-4 leukemia) was 680 nM, the TGI (MOLT-4 leukemia) was greater than 100000 nM and the GI50 (NCI-H226 lung) was 2200 nM. For the same compound, the TGI (NCI-H226 lung) was greater than 46600 nM.
